# Results reported in patent US20240158359A1, “HYDROLYSIS-RESISTANT ESTERS FOR DRUG AND IMAGING AGENT DELIVERY” (The Board of Trustees of the University of lllinois, priority 2022, published 2024).
# What was measured:
# [1] = system: A549 cells; assay: MTT cytotoxicity assay of BL660-NTR; type: cell-based; settings: 0 to 20 μM, up to 3 hours
# Protocol: Prior to testing BL660-NTR in vivo, we assessed potential cytotoxicity by treating A549 cells with BL660-NTR across a concentration range of 0 to 20 μM for up to 3 hours.
# MTT Cytotoxicity Assay. 24-well plates were seeded with 180,000 cells per well (500 μL of 360,000 cells/mL) and incubated at 37° C. with 5% CO2 for 24 h (˜70% confluent). Media was removed and fresh RPMI 1640 media with 10% FBS containing 0, 5, 10 or 20 μM BL660-NTR (1% DMSO final v/v) was added. The media was removed after 1 and 3 h and replaced with 500 μL of a 20:1 mixture of FBS-free RPMI 1640 and (3-(4,5-dimethylthiazol-2-yl)-2,5-diphenyl-tetrazolium bromide (MTT, 5 mg/mL stock in PBS). The cells were incubated for 2 h under the same conditions and then the medium was removed and replaced with DMSO (500 μL/well). The absorbance of each well was recorded after a 1:5 dilution in DMSO at 555 nm on a microplate reader. Viability was calculated by the absorbance relative to the vehicle control. Values are reported as the mean±standard deviation (n=3).
# [2] = system: A549-Luc2 tumors; assay: BL imaging of tumor hypoxia in a lung cancer model; type: in vivo, NU/J mice; settings: for BL signal in the tumors (in words): 5 to 75 min after retroorbital injection; for BL signal in the tumors (in words) / total luminescent count in tumors after 15 mins: 2.2 μmol/kg; for total luminescent count in tumors after 15 mins: NU/J mice with A549-Luc2 tumors
# Protocol: NU/J mice (male, ˜5-weeks old) were inoculated with A549-Luc2 lung cancer cells (5×10^6) in both flanks. Testing of BL660-NTR commenced after tumors had grown to a volume of ˜300 mm^3 (˜4 weeks). First, we performed imaging using BL660-NTR, which was administered systemically via retroorbital injection (ROI) (FIG. 5a (upper horizontal row of points) and FIG. 14). ROIs were drawn around each tumor and the luminescent count was summed for each animal. […] The BL intensity appears to decrease slightly after 15 mins and levels off until the end of the experiment (75 mins) (FIG. 5c).
# Next, to distinguish between NTR activation and off-target ester hydrolysis, we employed Compound (4) as a control reagent, which only differs in that the nitro trigger is absent (FIG. 1a). After approximately 20 hours, the same animals were treated with Compound (4) and imaged (FIG. 5b and FIG. 15). This delay was to ensure the probe had fully cleared from the first experiment. […] The total luminescent count after 15 mins for Compound 4 was only 4.0±0.7×10^3; whereas the corresponding readout was 16.6±2.5×10^3 for BL660-NTR. This represents a […] difference, indicating successful detection of tumor hypoxia (FIG. 5d).
# NU/J mice bearing A549-Luc2 tumors were anesthetized using isoflurane (1-3% for maintenance; up to 5% for induction) in oxygen from a precision vaporizer. After testing to ensure animals are fully under anesthesia, an initial background scan is recorded. BL660-NTR or compound 4 formulated in 3:7 v/v DMSO:PBS. The solution was filtered through a […] sterile filter immediately prior to use. The typical injection volume is ˜100 μM at a dose of 2.2 μmol/kg. The solution was then administered via retroorbital injection. Images were captured using the IVIS® imaging system at 5, 15, 30, 45, 60, and 75 minutes after injection. Bioluminescence light was collected in open mode (no filters were applied). Regions of interest (“ROIs”) were drawn around each tumor and summed for each animal. The signal intensity was quantified using the Living Image Analysis Software and is represented in FIGS. 5c and 5d.
# Generation of a Subcutaneous Lung Cancer Model: A549 cells were treated with vehicle (media only) or 50 μM DETA NONOate in media for 10 days. Cells were washed with PBS, resuspended in serum-free media (Hams F-12K), and mixed 1:1 with Geltrex (v/v) (to a final concentration of 5×10^7 cells/mL). Tumors were generated by subcutaneously injecting 100 μL of these cell solutions into the flanks of 4-week-old Nu/J mice (The Jackson Laboratory stock #: 002019).
# BL660-NTR was dissolved in DMSO and diluted with PBS (3:7 v/v DMSO:PBS). The solution was filtered through a […] sterile filter immediately prior to use. The typical injection volume is ˜100 μM at a dose of 2.2 μmol/kg.
# Compound 4 was dissolved in DMSO and diluted with PBS (3:7 v/v DMSO:PBS). The solution was filtered through a […] sterile filter immediately prior to use. The typical injection volume is ˜100 μM at a dose of 2.2 μmol/kg.
# [3] = molecular target: NTR (Escherichia coli, UniProt P38489)
# Chain of NTR (P38489 whole entry): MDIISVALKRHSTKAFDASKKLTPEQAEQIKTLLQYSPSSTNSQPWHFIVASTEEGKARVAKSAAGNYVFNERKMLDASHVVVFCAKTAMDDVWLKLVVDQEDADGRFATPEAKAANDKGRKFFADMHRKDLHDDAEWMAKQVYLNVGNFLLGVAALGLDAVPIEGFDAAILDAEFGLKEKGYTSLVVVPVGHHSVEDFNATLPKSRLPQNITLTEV
# Protocol: Dose-dependence Activation of BL660-NTR (FIG. 4a) by NTR: The response of BL660-NTR (5 μM) against different concentrations of NTR was measured in a 96-well culture plate and was monitored using the IVIS imaging system. BL660-NTR was incubated with either 0.01 U or 0.1 U NTR at 37° C. for 15 min before the wells were treated with ATP-MgSO4 and luciferase to initiation bioluminescence production. Light was collected immediately after mixing, and the signal enhancement was determined relative to control wells not treated with enzyme. The total volume of each well was 100 μL (PBS (pH 7.4) with 0.5% DMSO). All data is reported as the mean±standard deviation (n=5).
# [4] = 5 μM, 50 equiv analyte, 37° C., 30 min
# Protocol: For instance, transition metals like Cu(II) can facilitate ester hydrolysis via Lewis acid-mediated ester activation. Additionally, various reactive oxygen and nitrogen that can interact with the ester bond were also tested. Lastly, we also examined reactive sulfur species, which are known to reduce aryl nitro groups.
# Analyte Selectivity Assay for BL660-NTR. […] Light was collected within 15 min after mixing, and the signal enhancement was determined relative to control wells not treated with analyte. The total volume of each well was 100 μL [PBS (pH 7.4) with 0.5% DMSO]. Metal ion solutions were prepared by dissolving in MilliQ H2O before use. Superoxide anion was added as a solution of potassium superoxide in DMSO. Hydroxide radical was generated according to the previously reported literature. Similarly, peroxynitrite was prepared according to the reported literature. NO was generated in situ from a solution of DEA-NONOate in degassed PBS buffer. Glutathione reduced form was maintained at the final concentration of 5 mM in the reaction mixture. H2S was generated just before use according to the reported literature. NTR was used one unit per well. All other analytes were prepared by dilution or dissolution from commercially available sources.
# [5] = system: A549 cells; assay: Detection of NTR activity in A549 lung cancer cells cultured in hypoxia or normoxia, lysate BL imaging; type: cell-based
# Protocol: Next, we performed a cell imaging study to measure hypoxia within a living system. Specifically, A549 cells (not expressing Luc) were cultured in an atmosphere consisting of 1% or 20% oxygen for 2 days to mimic hypoxic conditions (1%) or normoxic (20%), respectively. Because aryl nitro reduction mediated by mammalian NTRs can be inhibited by molecular oxygen, we expect there to be greater probe activation under oxygen-deficient conditions. After incubating with BL660-NTR for 60 minutes, the cells were washed with fresh PBS, detached, pelleted, and lysed via sonication. The lysates were then transferred to 24-well plates, treated with luciferase and imaged immediately using the IVIS imaging system. […] This represents a significant 4.5-fold difference in BL intensity.
# A549 cells were seeded in T75 culture flasks and incubated in 1% or 20% oxygen atmosphere for 48 hours. A solution of BL660-NTR in DMSO (2 mM, 50 μL) was quickly added into each flask such that the final concentration of the probe is 10 μM and 0.5% DMSO. The cells were incubated with the probe for 60 minutes (under the respective culture conditions), washed with fresh PBS, and detached from the culture flasks. The cells were then transferred to a 15 mL centrifuge tube and pelleted at 1000 rpm for 5 min at room temp. The cells (4.25×10^6 cells/mL) were then resuspended in PBS along with 10% protease inhibitor solution (1 protease inhibitor mini tablet per 10 mL PBS, Pierce, Thermo Fisher Scientific) and sonicated on ice for 2.5 minutes (pulse 01, 01, 40%). The cell debris was removed via centrifugation at 4° C. The cell lysates were further diluted 2.5-fold by PBS and 475 μL were transferred into 24-well plates (n=4 for each condition), treated with luciferase (25 μL, 0.25 mg/mL), and imaged immediately using the IVIS imaging system. Bioluminescence light was collected in open mode (no filters were applied). ROIs were drawn around each well. The signal intensity was quantified using the Living Image Analysis Software.
# [6] = system: 4T1-Luc cells; assay: Ester stability in live 4T1-Luc cells, BL imaging; type: cell-based, murine; settings: 10 μM, 30 mins at 37° C.
# Protocol: First, we prepared BL660-Me, a methyl ester derivative of BL660 as shown in FIG. 2a for comparison to the benzyl ester (4) of FIG. 1a. Next, we cultured 4T1 murine breast cancer cells, stably expressing the luciferase enzyme (4T1-Luc). The cells were then treated with a DMSO (dimethyl sulfoxide) vehicle control, BL660-Me or Compound (4) (FIG. 3a and FIG. 10a, b, c respectively?). Imaging was performed using the IVIS In Vivo Imaging System.
# 4T1-Luc cell was cultured in phenol red-free RPMI 1640 (ATCC) with 10% fetal bovine serum (FBS, Sigma Aldrich), and 1% penicillin/streptomycin (Corning).
# Evaluation of BL660-Me and 4 in 4T1-Luc Cells. 4T1-Luc cells (180K) were seeded into 24-well plates and incubated for 24 hours. The cells were ˜85% confluent. The media was removed and replaced with serum-free RPMI 1640. An initial background scan was recorded on an IVIS imaging system in open mode where no filters were applied. Cells were then treated with DMSO (2.5 μL, 0.5%), BL660-Me, or compound 4 in DMSO (10 μM final concentration). After 30 minutes incubation at 37° C., bioluminescence was collected. ROIs were drawn around each well. The total luminescence count for each well for a given condition was averaged. The signal intensity was quantified using the Living Image Analysis Software.
# [7] = system: lipase, human carboxyesterase-2, monoacylglycerol lipase, fatty acid amide hydrolase, and aldehyde dehydrogenase 1A1; assay: Enzyme selectivity assay for Compound 4 against panel of ester-cleaving enzymes; type: in vitro ADME; settings: 5 μM, 10 mU of each enzyme (ALDH 1A1 100 nM), 37° C.
# Protocol: (§1) Following this set of experiments, we subjected Compound (4) to acidic (pH 5) and alkaline (pH 9) conditions to account for the various pH gradients in the body. For these experiments we used the Britton-Robinson buffer system. […] These include lipase, human carboxyesterase-2, monoacylglycerol lipase, fatty acid amide hydrolase, and aldehyde dehydrogenase 1A1.
# Enzyme Selectivity Assay for Compound 4. […] Compound 4 was incubated with 10 mU of each enzyme at 37° C. for 30 min before ATP-MgSO4 and luciferase were added to initiate bioluminescence production. […] ALDH 1A1 was used at a final concentration of 100 nM.
# [8] = Hydrolytic stability of BL660 esters in PBS, luciferase BL readout; type: physicochemical; settings: PBS pH 7.4, 37° C.; versus Compound (1)
# Protocol: We began our analysis of stability by incubating BL660 esters of Compound (1), Compound (2), and Compound (3) at 37° C. in PBS (phosphate-buffered saline) (pH 7.4). After 1, 6, and 12 hours, luciferase was added (10mU, 37° C., pH 7.4) to initiate BL production. The rate of hydrolysis, reported as total luminescence counts per hour, indicates hydrolysis in descending order is: Compound (1) (13.9±1.4×10^3); Compound (2) (3.3±0.6×10^3), and Compound (3) (1.0±0.1×10^3) (FIG. 1b, wherein the esters are indicated on the horizontal axis) and FIG. 8 (wherein the respective timeline plots are identified beneath the horizontal axis as (1), (2), etc.). Luminescent counts were recorded using an IVIS In Vivo Imaging System. […] Without wishing to be bound by any theory, we speculate hydrolysis of (3) may involve an SN1 mechanism, thus favoring formation of a double benzylic carbocation.
# [9] = system: porcine liver esterase; assay: Esterase reactivity: treatment with porcine liver esterase, BL readout; type: in vitro ADME; settings: porcine liver esterase 0.1 units/mL; versus Compound (1)
# Excerpt: The enzymatic rates, reported as total luminescence counts per minute, in descending order are: Compound (1) (31.0±6.8×10^2), (3) (9.5±1.2×10^2), and (2) (0.6±0.1×10^2) (FIG. 1c and FIG. 9). The greater stability imparted by the aromatic ring is not surprising since esterase reactivity can be readily attenuated with bulkier substituents.
# [10] = Hydrolytic stability of Compound (4) in Britton-Robinson buffer at pH 5, 7.4 and 9; type: physicochemical; settings: 10 μM
# Protocol: as §1
# Compound (4) (10 μM final concentration with 1% DMSO) was first incubated in Britton-Robinson buffer (pH 5, 7.4 and 9) at 37° C. for 2, 3 and 4 hrs. Then the pH's were adjusted to 7.4. Luminescence was measured by blocking excitation light and measuring emissions with 660 nm gating. Total volume of the reaction mixture was maintained at 100 μL. To the 50 μL of this reaction mixture was ATP-MgSO4 (45 μL, prepared by mixing 17.78 mM ATP-Mg and 35.56 mM MgSO4 in 1:1 ratio in PBS buffer) and the reaction was initiated with Luciferase (5 μL, 0.25 mg/mL in PBS containing 10% glycerol).
# [11] = 15 mins after retroorbital injection
SMILES,cell viability [1],BL signal in the tumors (in words) [2],"difference in total luminescent count, BL660-NTR versus Compound 4 [2, 11]","total luminescent count in tumors after 15 mins [2, 11]","total luminescence signal, NTR absent ([3]; BL660-NTR 5 μM and luciferase without NTR)","total luminescence count, probe, NTR and luciferase all present ([3]; BL660-NTR 5 μM, NTR 0.1 units, luciferase 0.0125 mg/mL)",activation by analytes compared to the NTR positive control [4],"difference in BL intensity, hypoxic versus normoxic ([5]; 1% versus 20% oxygen)","total luminescent counts, hypoxic lysates ([5]; A549 cells in 1% oxygen for 2 days, 10 μM probe 60 minutes)","total luminescent counts, normoxic lysates ([5]; A549 cells in 20% oxygen for 2 days, 10 μM probe 60 minutes)",total luminescence count [6],activation on exposure to ester-cleaving enzymes [7],resistance to hydrolysis relative to the parent benzyl ester [8],esterase stability relative to the parent benzyl ester [9],"rate of hydrolysis at pH 5.0 ([10]; Britton-Robinson buffer pH 5.0, 37° C., 2, 3 and 4 hrs)","rate of hydrolysis at pH 7.4 ([10]; Britton-Robinson buffer pH 7.4, 37° C., 2, 3 and 4 hrs)","rate of hydrolysis at pH 9.0 ([10]; Britton-Robinson buffer pH 9.0, 37° C., 2, 3 and 4 hrs)"
CCN(CC)c1ccc(C=CC=CC2=NC(C(=O)OC(c3ccc([N+](=O)[O-])cc3)C(C)C)CS2)cc1 (stereo not shown) [BL660-NTR],No loss of cell viability,strong BL signals were apparent in all tumors,5.2 fold,16.6±2.5×10^3 total luminescent count,significantly attenuated,notable increase in the total luminescence count,≤ 10%,4.5 fold,5.0±0.1×10^5 total luminescent counts,1.1±0.03×10^5 total luminescent counts,,,,,,,
CCN(CC)c1ccc(C=CC=CC2=NC(C(=O)OC(c3ccccc3)C(C)C)CS2)cc1 (stereo not shown) [Compound (4)],,barely discernable from background,,4.0±0.7×10^3 total luminescent count,,,,,,,3.1±1.2×10^3 total luminescence count,minimal activation,about 140 fold,about 68 fold,25.7±9.6×10^2 total luminescence counts per hour,8.6±1.3×10^2 total luminescence counts per hour,52.8±20.7×10^2 total luminescence counts per hour
